By logP is commonly meant the decadic logarithm of the partition coefficient of the neutral form, usually between octanol and water.

For 16 compounds, logP results are on record in the SangsterLogP compilation.

SMILES strings stand for the structures.

Take `Oc1cc(O)cc(C=Cc2ccc3c(Cl)cc(Cl)c(O)c3n2)c1`: the logP turned out to be 5.44.
`Oc1cccc2ccc(C=Cc3ccccc3Cl)nc12`: the logP was 4.99.
Consider `Oc1ccc(C=Cc2ccc3c(Cl)cc(Cl)c(O)c3n2)cc1`, for which the logP was found to be 5.72.
`Oc1ccccc1C=Cc1ccc2ccccc2n1` displayed a log partition coefficient (logP) of 4.48.
Turning to `CCOc1ccccc1C=Cc1ccc2c(Cl)cc(Cl)c(O)c2n1`, the logP was determined as 6.28.
The figure for `Oc1ccc(C=Cc2ccc3c(Cl)cc(Cl)c(O)c3n2)cc1O` is 5.55; for `Oc1ccccc1C=Cc1ccc2c(Cl)cc(Cl)c(O)c2n1` it is 5.35.
The compound `Clc1ccccc1C=Cc1ccc2cccc(Cl)c2n1` showed a logP of 5.69.
In turn, `Oc1cccc(C=Cc2ccc3cccc(O)c3n2)c1` returned a log partition coefficient (logP) of 4.18.
For `Oc1c(Cl)cc(Cl)c2ccc(C=Cc3ccc(C=Cc4ccc5c(Cl)cc(Cl)c(O)c5n4)cc3)nc12`, the log partition coefficient (logP) turned out to be 9.69.
The compound `CCOc1ccc(C=Cc2ccc3c(Cl)cc(Cl)c(O)c3n2)cc1` came in with a logP of 6.25.
As to `Oc1ccc(C=Cc2ccc3c(Cl)cc(Cl)c(O)c3n2)c(O)c1`, the logP came to 5.17.
The compound `Oc1ccc(C=Cc2ccc3cccc(O)c3n2)c(O)c1` returned a lipophilicity (logP) of 3.67.
To `Oc1c(Cl)cc(Cl)c2ccc(C=Cc3ccccc3Cl)nc12` belongs 6.49; to `CCOc1ccc(C=Cc2ccc3cccc(O)c3n2)cc1`, 4.75.
On to `CCOc1ccccc1C=Cc1ccc2cccc(O)c2n1`, for which the logP amounted to 4.8.
